Laboratory results reported in US5439816A, “Carboxymethylcellulase isolated from bacillus sp. PKM-5430 (FERM BP-4087)” (Kao Corporation, priority 1991, dated 1995).

Columns and labels:
[1] = system: Carboxymethylcellulase 5430; assay: Substrate specificity of Carboxymethylcellulase 5430 (hydrolytic activities, DNS method / p-nitrophenol release); assay type: biochemical, Bacillus sp. PKM-5430
Protocol: (§1) Activities were determined by the DNS method (J. R. Summer and G. F. Somers, Laboratory Experiments in Biological Chemistry, Academic Press, New York, U.S.A., 1944). Namely, 0.1 ml of a suitably diluted enzyme solution was added to 0.9 ml of a 1.1% (w/v) solution of a CMC (A01MC) substrate in 0.1M glycine-NaOH buffer (pH: 9.0). After a 20-minute reaction at 40° C., 1 ml of 0.05% (w/v) 3,5-dinitrosalicylic acid solution (product of Wako Pure Chemical Industries, Ltd.) was added, and the resulting mixture was immediately placed in a boiling water bath for 5 minutes, followed by cooling in an iced water bath. Then, 4 ml of deionized water was added further, afterwhich, colorimetry was conducted by measuring an absorbance at 535 nm. With respect to enzymatic activity, the amount of enzyme, which liberates reducing sugars corresponding to 1 μmole of glucose for 1 minute, was defined as 1 unit.
(§2) Sodium hydroxide- and phosphoric acid-swollen celluloses were prepared according to the method of Tomita et al. [Y. Tomita, H. Suzuki and K. Nisizawa, J. Biochem., 78, 499(1975)]. The reducing sugar liberated was determined in a similar manner to that of the method (a) except that substrate solutions containing cellulose substrates were used, and the reaction was conducted at 30° C.
(§3) The reducing sugar liberated was determined in a similar manner to that of the method (a) except that substrate solutions containing polysaccharides were used, and the reaction was conducted at 30° C.
(§4) A suitably diluted enzyme solution was added to a solution of 8 mM of a PNPG or PNPC substrate in 0.1M phosphate buffer of pH 7.0 to react them for 20 minutes at 30° C. The p-nitrophenol liberated was determined at 400 nm and the amount formed was calculated.
(§5) The enzyme is also active toward cellobiose, PNPG, PNPC, cellulose powder and phosphoric acid-swollen cellulose.

[2] = system: Carboxymethylcellulase 5812; assay: Substrate specificity of Carboxymethylcellulase 5812 (hydrolytic activities, DNS method / p-nitrophenol release); assay type: biochemical, Bacillus sp. PKM-5812
Protocol: as §1, §2, §3, §4, §5

[3] = substrate 8 mM, 0.1M phosphate buffer pH 7.0, 30° C., activity toward CMC taken as 100%

In the case of `O=[N+]([O-])c1ccc(O[C@@H]2O[C@H](CO)[C@@H](O)[C@H](O)[C@H]2O)cc1` [PNPG, p-nitrophenyl-β-D-glucopyranoside], the “activity of the enzyme toward substrate” value [1] is reported as “active”, the “Relative activity (%)” value [1, 3] is reported as 0.8% and the “activity of the enzyme toward substrate” value [2] is reported as “active”. The “Relative activity (%)” value [2, 3] was 0.2%.
